Experimental data as given in patent publication US20120121509A1, “VITAL FLUOROCHROME CONJUGATES AND METHODS OF USE” (THE GENERAL HOSPITAL CORPORATION, priority 2009, published 2012).

Assays:
Jurkat cells = assay: In vitro T1 weighted MRI / FRI of packed cell phantoms of camptothecin treated Jurkat cells; format: cell-based; settings: for uptake by CPT treated cells by MRI: T1 weighted MRI, FRI and relaxometry, CPT treated versus non-CPT treated Jurkat cells
Description: The interaction of GadoTO with necrotic cells is shown schematically in FIG. 5A. GadoTO is excluded by vital cells. Prolonged ischemia or a 48 hour exposure to CPT induces necrosis, which causes GadoTO to enter cells and intercalate with double stranded nuclear DNA. […] Effects on cellular T1 were confirmed by relaxometry studies using cell suspensions.

[1] = tested on: necrotic cardiomyocytes of infarcted myocardium; assay: In vivo MR imaging of ischemia induced necrosis, left coronary artery ligation; settings: mouse
Description: For in vivo MR studies, we employed a model of prolonged ischemia, obtained when the left coronary artery of a beating mouse heart was ligated for 18 hours. The ligation and procedure is similar to our previously described method (Sosnovik, D. E. et al., Magn. Reson. Med., 54:718-24, 2005) except the duration is for 18 hours. […] GadoTO was injected (18 hours post ligation) and imaged (21 h). […] Gd-DTPA washed in and out of damaged myocardium within 1 hour.

[2] = cited from earlier work; for Abs (absorption): first figure of Abs/em; for em (emission): second figure of Abs/em
infarcted myocardium = assay: MR imaging of post myocardial infarction phases (age of infarction); format: in vivo; settings: mouse
Excerpt: An additional feature of the invention is an imaging method to determine the age of a myocardial infarction (MI), i.e., the time since the occlusion began. Patients can present with symptoms of variable intensity and duration that may or may indicate an infarction. Current techniques can define regions of non-functional myocardium, but cannot define the time of infarction. With developing (“young”) infarctions, treatments to limit or reverse the affected area are indicated, while with “old” infarctions such treatments are futile. In this method a vital fluorochrome conjugate is injected intravenously and MRI or PET or SPECT are used to measure the vital fluorochrome conjugates uptake in an infracted area.
FIGS. 6A and 6B show an example of a beating mouse heart injected with GadoTO imaged during phase 2 (18 hours) (FIG. 6A) and phase 4 (8 days) (FIG. 6B) of the post MI reaction phases. […] GadoTO can thus be used to specifically image acutely necrotic myocardium/tissue.

Jurkat T cells [3] = assay: Dual wavelength FACS with Annexin V-APC, camptothecin-treated Jurkat T cells; format: cell-based
Description: (§1) Experimental Details for the Dual Wavelength FACS and Single Channel FACS: Cell culture: All experiments described used Jurkat T cells (Clone E6-1, ATCC #TIB-152). Cells were grown in RPMI 1640 medium (ThermoFisher Scientific, Hampton, N.H.) with 10% fetal bovine serum (Valley Biomedical, Winchester, Va.), 1% L-Glutamine (Mediatech, Manassas, Va.), 1% Penycillin-Streptomycin (Mediatech, Manassas, Va.). Media was changed every two or three days. Cells were maintained at 37° C., 5% CO2. Flow cytometry experiments: Cells were treated with camptothecin (CPT, 24 hrs, 10 μM). After removal of the medium, cells were resuspended into 100 μL of binding buffer (10 mM HEPES, 140 mM NaCl, 2.5 mM CaCl2, 1% FBS). Cells were stained at 37° C. for 15 min with 1 μL Annexin-APC (Invitrogen) and 1 μL propidium iodide (BD Pharmingen) or 1 μL of GadoTO (0.1 mM stock solution in binding buffer). Cells were diluted with 200 μL of binding buffer and analyzed by flow cytometry (FACSCalibur, Becton Dickinson). Fluorescence from the APC fluorochrome was measured in FL4, PI in FL3, and GadoTO in FL1.
Results from Dual Wavelength FACS: The exclusion of GadoTO from healthy cells and uptake by necrotic cells by FACS is shown in FIG. 3. […] GadoTO binding necrotic cells were of two intensities (Hi and Lo), indicating two subpopulations of necrotic cells.

Jurkat T cells [4] = assay: Single channel FACS, GadoTO versus propidium iodide; format: cell-based
Description: as §1, with “FL1. […]” for “FL1.”

plasmid DNA = assay: Relaxation assay: binding of GadoTO to plasmid DNA monitored by relaxometry (T1); settings: GadoTO 1 mM, plasmid DNA 0.025 to 0.3 ug/uL, Bruker minispec; 95% confidence interval 0.078-0.101; read-out: half-maximal concentration (EC50) from T1 values
Description: Experimental Details of the Relaxation Assay: Gadolinium thiazole orange (GadoTO) at 1 mM was employed with increasing concentrations of plasmid DNA (DNA 0.025 to 0.3 ug/uL). Relaxation times were measured on a Bruker minispec at […].
(§2) Results from the Relaxation and Fluorescence Assays: The design of vital fluorochrome conjugates must preserve the essential features of the vital fluorochrome upon which it is based. The verification that a putative vital fluorochrome conjugates (VF-Linker-Reporter) has the properties of the VF upon which its was based is shown in FIGS. 2A, 2B, 3 and 4 which show the results with the vital fluorochrome conjugates known as GadoTO. Since the reporter group of GadoTO is a paramagnetic gadolinium chelate, binding can be ascertained by changes in the water relaxation rates. […] Binding of small GadoTO to the larger DNA slows the molecular motion, increasing the R1 relaxivity and decreasing the solution T1.

DNA = assay: Fluorescence assay: binding of GadoTO to DNA monitored by fluorescence; settings: GadoTO 2.35 uM, increasing DNA concentrations, emission 510-700 nm; 95% confidence interval 0.149-0.214; read-out: half-maximal concentration (EC50) from fluorescence values
Description: Experimental Details of the Fluorescence Assay: GadoTO at 2.35 uM was employed with increasing concentrations of DNA. Absorption spectra were measured on a Varian Cary 50 Bio UV-Visible spectrophotometer. The absorbance at 511 nm was measured. Fluorescence emission spectra were recorded on a Varian Cary Eclipse fluorescence spectrophometer. Fluorescence intensities were measured between 510 and 700 nm and corrected, when necessary, for matched absorbances at 511 nm. Fluorescence intensities were plotted versus DNA concentrations.
as §2

Q: For `O=C([O-])CN(CCN(CC(=O)[O-])CC(=O)O)CCN(CC(=O)[O-])CC(=O)O.[Gd+3]` [Gd-DTPA], which “uptake by CPT treated cells by MRI” value (Jurkat cells) is on record?
A: The value was “did not induce the uptake”.

Q: And the “time to wash in and out of damaged myocardium” value ([1]; damaged myocardium)?
A: The value was ≤ 1 h.

Q: Which results are given for `CCCN(CCCN(C)C)C1=C/C(=C\c2sc3ccccc3[n+]2C)c2ccccc2N1c1ccccc1` [Sybr Green]?
A: Abs (absorption) [2]: 490 nm; em (emission) [2]: 520 nm

Q: What does the source list for `CN1/C(=C/c2cc[n+](CCC[N+](C)(C)C)c3ccccc23)Sc2ccccc21` [TO-PRO 1]?
A: Abs (absorption) [2]: 515 nm; em (emission) [2]: 531 nm

Q: What does the source list for `C[n+]1c(/C=C/C=C2\C=CN(CCC[N+](C)(C)C)c3ccccc32)sc2ccccc21` [TO-PRO 3]?
A: Abs (absorption) [2]: 612 nm; em (emission) [2]: 631 nm

Q: Which results are given for `CN(C)CCCN1C=C\C(=C/C=C/C=C/c2sc3ccccc3[n+]2C)c2ccccc21.I.[I-]` [TO-PRO 5]?
A: Abs (absorption) [2]: 745 nm; em (emission) [2]: 770 nm

Q: Which results are given for `CN1/C(=C/C=C/C2C=CN(CCC[N+](C)(C)C)c3ccccc32)Oc2ccccc21` (centres unmarked) [YO-PRO 3]?
A: Abs (absorption) [2]: 612 nm; em (emission) [2]: 631 nm

Q: With `CN1/C(=C/c2cc[n+](CCC[N+](C)(C)C)c3ccccc23)Oc2ccccc21` [YO-PRO] as the molecule, how does the “Abs (absorption)” value [2] read?
A: Its value is 491 nm.

Q: What about the “em (emission)” value [2] of the same molecule?
A: Its value is 509 nm.

Q: What does the source list for Gadolinium thiazole orange [GadoTO]?
A: uptake in infarcted myocardium (infarcted myocardium; phase 2 (18 hours) post MI): Profound uptake; uptake in infarcted myocardium (infarcted myocardium; phase 4, injected 8 days after myocardial infarction): no uptake; uptake by CPT treated cells by MRI (Jurkat cells): brighter than non-CPT treated cells; nuclear cell fluorescence emission (Jurkat cells; after intercalation with double stranded nuclear DNA of necrotic cells): 533 nm; infarct on GRE image ([1]; injected 18 hours post ligation, imaged 21 h, gradient echo): barely visible infarct; infarct on IR GRE image ([1]; injected 18 hours post ligation, imaged 21 h, inversion recovery GRE): well-defined, bright infarct; binding to cells, dual wavelength FACS (Jurkat T cells [3]; Jurkat T cells after camptothecin (+CPT, 24 hrs, 10 μM), necrotic cells): cells bound both probes; binding to cells, dual wavelength FACS (Jurkat T cells [3]; Jurkat T cells before camptothecin (-CPT), viable cells): failed to bind; binding to cells, single channel FACS (Jurkat T cells [4]; Jurkat cells with CPT (+CPT), PI compared with GadoTO): two peaks (Lo and Hi) of highly fluorescent cells were seen; binding to cells, single channel FACS (Jurkat T cells [4]; Jurkat cells without CPT (-CPT)): cells failed to bind GadoTO; EC50 (plasmid DNA): 89 µM; EC50 (DNA): 179 µM
